{"source": "paper PMC8323883", "about": "“PlzA is a bifunctional c-di-GMP biosensor that promotes tick and mammalian host-adaptation of Borrelia burgdorferi” (PLoS Pathogens, 2021)", "target": "T1, PlzA (BB0733) (Borreliella burgdorferi, UniProt O51675)", "T1 construct": "gene BB_0733; PilZN3-PilZ domains", "T1 sequence (O51675 entry or part of it)": "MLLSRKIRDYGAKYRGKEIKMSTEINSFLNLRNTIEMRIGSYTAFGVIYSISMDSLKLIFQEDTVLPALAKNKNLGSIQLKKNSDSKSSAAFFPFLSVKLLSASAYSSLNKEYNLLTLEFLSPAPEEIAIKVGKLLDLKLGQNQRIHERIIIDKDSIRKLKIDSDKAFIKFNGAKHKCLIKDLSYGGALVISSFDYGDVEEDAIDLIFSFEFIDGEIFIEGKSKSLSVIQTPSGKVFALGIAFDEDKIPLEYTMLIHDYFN", "assay": "SAXS with and without ligand (Kratky plots)", "type": "binding", "conditions": "33-135 µM PlzA, 270 µM c-di-GMP; 500 mM NaCl, 20 mM Na2HPO4, pH 7.4; ligand-induced conformational change", "data": [{"smiles": "Nc1nc2c(ncn2[C@@H]2O[C@@H]3COP(=O)(O)O[C@H]4[C@@H](O)[C@H](n5cnc6c(=O)[nH]c(N)nc65)O[C@@H]4COP(=O)(O)O[C@H]3[C@H]2O)c(=O)[nH]1", "note": "[c-di-GMP, bis-(3′-5′)-cyclic dimeric guanosine monophosphate]", "values": [{"measurement": "SAXS with and without ligand (Kratky plots)", "result": "confirming a major structural rearrangement upon binding of c-di-GMP"}]}]}
